“And” between values parts separate entries of the source, which are not always exact repeats. Equal values may be shown once.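 1) Cells in 96-well plates. 2) Compound, 48 h, 5 concentrations. 3) Linear interpolation between surrounding doses. 4) Unreached endpoint = highest concentration. At the GI50, growth is halved. At the TGI there is no net growth.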
Tests used:
Experiment in all cases: NCI-60 cell line screen, 48 h
[1] = test system: ACHN renal
[2] = test system: CCRF-CEM leukemia
[3] = test system: HCT-116 colon
[4] = test system: HOP-92 NSCLC
[5] = test system: IGROV1 ovarian
[6] = test system: M14 melanoma
[7] = test system: NCI-H226 lung
[8] = test system: OVCAR-4 ovarian
[9] = test system: SK-MEL-5 melanoma
[10] = test system: SN12C renal

Compound: NNC(=S)N/N=C(\C(=O)Nc1cccc(O)c1)C1C(=O)NC(=S)NC1=O
- TGI [1]: > 100 µM
- TGI [2]: > 100 µM
- TGI [3]: > 100 µM
- TGI [4]: > 100 µM
- TGI [5]: > 100 µM
- TGI [6]: > 100 µM
- TGI [7]: > 100 µM
- TGI [8]: > 100 µM
- TGI [9]: > 100 µM
- TGI [10]: > 100 µM

Compound: COc1ccc(/C=C/C(=O)c2cc(OC)c(OC)c(OC)c2)cc1OCC(=O)Nc1nc2ccc(OC(F)(F)F)cc2s1
- GI50 [1]: 1.62 µM
- TGI [1]: 3.85 µM
- GI50 [2]: 2.5 µM
- TGI [2]: > 100 µM
- GI50 [3]: 1.43 µM
- TGI [3]: 3.15 µM
- GI50 [4]: 2.14 µM
- TGI [4]: 7.32 µM
- GI50 [5]: 2.54 µM
- TGI [5]: 5.56 µM
- GI50 [6]: 1.72 µM
- TGI [6]: 4.52 µM
- GI50 [7]: 3.35 µM
- TGI [7]: 32.1 µM
- GI50 [8]: 2.07 µM
- TGI [8]: 5.14 µM
- GI50 [9]: 2.03 µM
- TGI [9]: 10.5 µM
- GI50 [10]: 1.74 µM
- TGI [10]: 4.67 µM

Compound: COc1cc(/C=C\c2cc(OC)c(OC)c(OC)c2)cc(N/C=C\C(=O)c2ccc(OC(F)(F)F)cc2)c1OC
- GI50 [1]: 5.56 µM
- TGI [1]: > 100 µM
- GI50 [2]: 3.55 µM
- TGI [2]: > 100 µM
- GI50 [3]: 3.58 µM
- TGI [3]: > 100 µM
- GI50 [4]: 12.6 µM
- TGI [4]: > 100 µM
- GI50 [5]: 7.06 µM
- TGI [5]: > 100 µM
- GI50 [6]: 3.46 µM
- TGI [6]: > 100 µM
- GI50 [7]: 19.9 µM
- TGI [7]: > 100 µM
- GI50 [8]: 7.54 µM
- TGI [8]: > 100 µM
- GI50 [9]: 3.74 µM
- TGI [9]: > 100 µM
- GI50 [10]: 4.85 µM
- TGI [10]: > 100 µM

Compound: CC(C)(CN1CCCCC1)C(=O)/C=C/c1ccc(/C=C/C(=O)C(C)(C)CN2CCCCC2)cc1
- TGI [1]: 0.669 µM
- TGI [2]: 0.234 µM
- TGI [3]: 1.1 µM
- TGI [4]: 1.58 µM
- TGI [5]: 1.52 µM
- TGI [6]: 3.26 µM
- TGI [7]: 3.77 µM
- TGI [8]: 1.47 µM
- TGI [9]: 1.98 µM
- TGI [10]: 0.589 µM

Compound: O=C(/C=C/c1cc(Cl)cc(Cl)c1O)c1cccc(O)c1
- TGI [1]: > 100 µM
- TGI [2]: > 100 µM
- TGI [3]: > 100 µM
- TGI [4]: 84.9 µM
- TGI [5]: > 100 µM
- TGI [6]: > 100 µM
- TGI [7]: 30.6 µM
- TGI [8]: > 100 µM
- TGI [9]: > 100 µM
- TGI [10]: 27.7 µM

Compound: C/C(=N\NC(=S)N1CCCCC1)c1ccccn1
- GI50 [1]: < 0.0116 µM
- TGI [1]: 7.34 µM
- GI50 [2]: < 0.0143 µM
- TGI [2]: > 25.1 µM
- GI50 [3]: < 0.01 µM
- TGI [3]: 1.52 µM
- GI50 [4]: 0.0963 µM
- TGI [4]: 4.54 µM
- GI50 [5]: < 0.01 µM
- TGI [5]: 5.79 µM
- GI50 [6]: < 0.0148 µM
- TGI [6]: 2.23 µM
- GI50 [7]: 0.32 µM
- TGI [7]: 2.95 µM
- GI50 [8]: < 0.01 µM
- TGI [8]: 4.57 µM
- GI50 [9]: 0.0694 µM
- TGI [9]: 0.87 µM
- GI50 [10]: 0.29 µM
- TGI [10]: 14.3 µM

Compound: O=C(Oc1cccc2cccnc12)c1cc2c(cc1Cl)SC(N(c1ccc(F)cc1)S(=O)(=O)c1ccc(Br)s1)=NS2(=O)=O
- GI50 [1]: 33.8 µM
- TGI [1]: > 100 µM
- GI50 [2]: 30.5 µM
- TGI [2]: > 100 µM
- GI50 [3]: 19.3 µM
- TGI [3]: 55 µM
- GI50 [4]: 22.5 µM
- TGI [4]: 48.5 µM
- GI50 [5]: 60.3 µM
- TGI [5]: > 100 µM
- GI50 [6]: 23.9 µM
- TGI [6]: > 100 µM
- GI50 [7]: 66.4 µM
- TGI [7]: > 100 µM
- GI50 [8]: 17.8 µM
- TGI [8]: 46.8 µM
- GI50 [9]: 18.2 µM
- TGI [9]: 39.8 µM
- GI50 [10]: 24.9 µM
- TGI [10]: > 100 µM

Compound: COc1ccc(C2CC(c3cccc(Nc4ccnc5cc(Cl)ccc45)c3)=NN2C=O)cc1 (centres undefined)
- GI50 [1]: 0.867 µM
- TGI [1]: > 100 µM
- GI50 [2]: 0.434 µM
- GI50 [3]: 0.398 µM
- TGI [3]: 2.56 µM
- GI50 [4]: > 100 µM
- TGI [4]: > 100 µM
- GI50 [5]: 1.9 µM
- TGI [5]: > 100 µM
- GI50 [6]: 0.374 µM
- TGI [6]: 21.2 µM
- GI50 [7]: 39.3 µM
- TGI [7]: > 100 µM
- GI50 [8]: 0.94 µM
- TGI [8]: > 100 µM
- GI50 [9]: 0.403 µM
- TGI [9]: 25.8 µM
- GI50 [10]: 0.807 µM
- TGI [10]: > 100 µM

Compound: COC[C@@H](N=C1NC(=O)/C(=C/c2ccc3ncccc3c2)S1)c1ccccc1
- GI50 [1]: 9.24 µM
- TGI [1]: > 25 µM
- GI50 [2]: 6.8 µM
- TGI [2]: > 22 µM
- GI50 [3]: 8.73 µM
- TGI [3]: > 25 µM
- GI50 [4]: 5.07 µM
- TGI [4]: > 21.1 µM
- GI50 [5]: 12.9 µM
- TGI [5]: > 25 µM
- GI50 [6]: 13 µM
- TGI [6]: > 25 µM
- GI50 [7]: 6.88 µM
- TGI [7]: > 25 µM
- GI50 [8]: 5.16 µM
- TGI [8]: > 25 µM
- GI50 [9]: 7.51 µM
- TGI [9]: 24.9 µM
- GI50 [10]: 8.52 µM
- TGI [10]: > 25 µM

Compound: CC1=CC(=O)C2=C(C)CCC3C(C)C(=O)OC3C12 (centres undefined)
- TGI [1]: > 100 µM
- TGI [2]: > 100 µM
- TGI [3]: > 100 µM
- TGI [4]: > 100 µM
- TGI [5]: > 100 µM
- TGI [6]: > 100 µM
- TGI [7]: > 100 µM
- TGI [8]: > 100 µM
- TGI [9]: > 100 µM
- TGI [10]: > 100 µM

Compound: COC(=O)C(C(=O)C(=O)Nc1c(C)cccc1C)c1cnc2ccccc2n1 (centres undefined)
- TGI [1]: > 100 µM
- TGI [2]: > 100 µM
- TGI [3]: > 100 µM
- TGI [4]: > 100 µM
- TGI [5]: > 100 µM
- TGI [6]: > 100 µM
- TGI [7]: > 100 µM
- TGI [8]: > 100 µM
- TGI [9]: > 100 µM
- TGI [10]: > 100 µM

Compound: O=C(N/C(=C\c1ccc(Cl)cc1)c1nc2ccccc2[nH]1)c1ccccc1
- TGI [1]: 80.5 µM
- TGI [2]: 57.3 µM
- TGI [3]: 29.1 µM
- TGI [4]: 33.6 µM
- TGI [5]: 60 µM
- TGI [6]: 34.1 µM
- TGI [7]: 44.9 µM
- TGI [8]: 37.9 µM
- TGI [9]: 35.3 µM
- TGI [10]: 49.2 µM

Compound: Cc1cccc(N(C)C(=O)[C@@H]2[C@H](O)CCN2c2nc(C)cc(C(F)(F)F)c2C#N)c1
- GI50 [1]: 18.3 µM
- TGI [1]: 41.9 µM
- GI50 [2]: 25.8 µM
- TGI [2]: > 100 µM
- GI50 [3]: 15.4 µM
- TGI [3]: 29 µM
- GI50 [4]: 11 µM
- TGI [4]: 53.1 µM
- GI50 [5]: 26.5 µM
- TGI [5]: 94.5 µM
- GI50 [6]: 16.3 µM
- TGI [6]: 34.5 µM
- GI50 [7]: 23.9 µM
- TGI [7]: > 100 µM
- GI50 [8]: 18.7 µM
- TGI [8]: > 100 µM
- GI50 [9]: 15.6 µM
- TGI [9]: 30.6 µM
- GI50 [10]: 17.3 µM
- TGI [10]: 50.1 µM

Compound: Nc1nccc(-c2c(-c3ccc(F)cc3)ncn2C2CCNCC2)n1
- GI50 [1]: 7.61 µM and 1.41 µM
- TGI [1]: > 25 µM
- GI50 [2]: 13.2 µM and 4.52 µM
- TGI [2]: > 25 µM
- GI50 [3]: 3.52 µM and 1.47 µM
- TGI [3]: > 25 µM
- GI50 [4]: 3.07 µM
- TGI [4]: > 25 µM
- GI50 [5]: 5.13 µM and 4.73 µM
- TGI [5]: > 25 µM
- GI50 [6]: 13.3 µM and 3.85 µM
- TGI [6]: > 25 µM
- GI50 [7]: 1.27 µM and 3.97 µM
- TGI [7]: > 21.2 µM and 20.1 µM
- GI50 [8]: 1.86 µM and 2.77 µM
- TGI [8]: > 25 µM and 13.1 µM
- GI50 [9]: 1.74 µM and 4.23 µM
- TGI [9]: > 19.9 µM
- GI50 [10]: 7.71 µM and 2.13 µM
- TGI [10]: > 25 µM

Compound: CCC(C)CCOC(=O)c1ccc(N=Cc2ccc(C=Nc3ccc(C(=O)OCCC(C)CC)cc3)cc2)cc1 (centres undefined)
- TGI [1]: > 100 µM
- TGI [2]: > 100 µM
- TGI [3]: > 100 µM
- TGI [4]: > 100 µM
- TGI [5]: > 100 µM
- TGI [6]: > 100 µM
- TGI [7]: > 100 µM
- TGI [8]: > 100 µM
- TGI [9]: > 100 µM
- TGI [10]: > 100 µM
